# Data reported in patent US11981696B2, “Fluoro-pyridinone phosphates and boronates useful as antibacterial agents” (Pfizer Inc., priority 2018, dated 2024).
# Legend:
# [1] = system: Acinetobacter baumannii/haemolyticus AB-3167; assay: MIC determination (CLSI), AB-3167; assay type: cell-based; conditions: multidrug-resistant clinical isolate, lower of duplicate values
# Procedure: (§1) B) MIC determinations: The in vitro antibacterial activity of compounds was evaluated by minimum inhibitory concentration (MIC) testing according to Clinical and Laboratory Standards Institute (CLSI). See: Clinical and Laboratory Standards Institute. Methods for Dilution Antimicrobial Susceptibility Tests for Bacteria that Grow Aerobically; Approved Standard-Eighth Edition. CLSI document M7-A8 [ISBN 1-56238-689-1]. Clinical and Laboratory Standards Institute, 940 West Valley Road, Suite 1400, Wayne, Pennsylvania 19087-1898 USA, 2006; also Clinical and Laboratory Standards Institute. Performance Standards for Antimicrobial Susceptibility Testing; Twentieth Informational Supplement. CLSI document M100-S20 [ISBN1-56238-716-2]. Clinical and Laboratory Standards Institute.
# (§2) The MIC determination is a standard laboratory method for evaluating the antibacterial activity of a compound. […] The MIC is then determined by visually inspecting the drug effect at each concentration, and identifying the lowest drug concentration that has inhibited bacterial growth as compared to the drug free control. […]
# (§3) The MIC values described in Table 3 below were derived from assays wherein each test compound was evaluated in duplicate. […] While a single MIC is reported for each compound and each microorganism, the reader should not conclude that each compound was only tested once. […]
# Escherichia coli EC-1 = assay: MIC determination (CLSI), EC-1; assay type: cell-based; conditions: EC1, read-out: EC-1 MIC
# Procedure: as §1, §2, §3
# [2] = system: Klebsiella pneumoniae KP-3700; assay: MIC determination (CLSI), KP-3700; assay type: cell-based; conditions: ciprofloxacin-resistant, ESBL clinical isolate; lower of duplicate values
# Procedure: as §1, §2, §3
# [3] = system: Pseudomonas aeruginosa UI-18 (PA-7); assay: MIC determination (CLSI), PA-7; assay type: cell-based; conditions: wild-type UI-18, lower of duplicate values
# Procedure: as §1, §2, §3
# [4] = Solubility in normal saline; assay type: physicochemical; conditions: saline or isotonic
# hepatocytes from mouse = assay: In vitro hepatocyte study, mouse; assay type: in vitro ADME; conditions: concomitant appearance of parent compound and its glucuronide metabolite
# Source text: (§4) In vitro hepatocyte study: The disposition of (2R)-4-[5-fluoro-4-(2-fluoro-4-methoxyphenyl)-2-oxopyridin-1(2H)-yl]-N-hydroxy-2-methyl-2-(methylsulfonyl) butanamide phosphate was examined in hepatocytes from mouse, rat, dog, monkey and human. In each case, qualitatively it was observed that the (2R)-4-[5-fluoro-4-(2-fluoro-4-methoxyphenyl)-2-oxopyridin-1(2H)-yl]-N-hydroxy-2-methyl-2-(methylsulfonyl) butanamide phosphate disappeared, concomitant with appearance of (2R)-4-[5-fluoro-4-(2-fluoro-4-methoxyphenyl)-2-oxopyridin-1(2H)-yl]-N-hydroxy-2-methyl-2-(methylsulfonyl) butanamide (parent compound) and a glucuronide metabolite of the parent compound. In Vivo Studies
# hepatocytes from rat = assay: In vitro hepatocyte study, rat; assay type: in vitro ADME; conditions: concomitant appearance of parent compound and its glucuronide metabolite
# Source text: as §4
# hepatocytes from dog = assay: In vitro hepatocyte study, dog; assay type: in vitro ADME; conditions: concomitant appearance of parent compound and its glucuronide metabolite
# Source text: as §4
# hepatocytes from monkey = assay: In vitro hepatocyte study, monkey; assay type: in vitro ADME; conditions: concomitant appearance of parent compound and its glucuronide metabolite
# Source text: as §4
# hepatocytes from human = assay: In vitro hepatocyte study, human; assay type: in vitro ADME; conditions: concomitant appearance of parent compound and its glucuronide metabolite
# Source text: as §4
disposition in hepatocytes (qualitative) (hepatocytes from mouse),disposition in hepatocytes (qualitative) (hepatocytes from rat),disposition in hepatocytes (qualitative) (hepatocytes from dog),disposition in hepatocytes (qualitative) (hepatocytes from monkey),disposition in hepatocytes (qualitative) (hepatocytes from human),Compound,MIC [1] [µg/mL],MIC (Escherichia coli EC-1) [µg/mL],KP-3700 MIC [2] [µg/mL],MIC [3] [µg/mL],solubility [4] [mg/mL]
,,,,,"COc1ccc(-c2cc(=O)n(CC[C@](C)(C(=O)NO)S(C)(=O)=O)cc2F)c(F)c1 [Parent Compound, (2R)-4-[5-fluoro-4-(2-fluoro-4-methoxyphenyl)-2-oxopyridin-1(2H)-yl]-N-hydroxy-2-methyl-2-(methylsulfonyl)butanamide]",> 64,0.25,0.5,0.5,< 1
,,,,,"COc1ccc(-c2cc(=O)n(CC[C@](C)(C(=O)NOP(=O)([O-])[O-])S(C)(=O)=O)cc2F)c(F)c1.[Na+].[Na+] [Example 3, (R)-4-(5-fluoro-4-(2-fluoro-4-methoxyphenyl)-2-oxopyridin-1(2H)-yl)-2-methyl-2-(methylsulfonyl)butanamido phosphate, Disodium Salt]",,,,,≥ 20
disappeared,disappeared,disappeared,disappeared,disappeared,"COc1ccc(-c2cc(=O)n(CC[C@](C)(C(=O)NOP(=O)(O)O)S(C)(=O)=O)cc2F)c(F)c1 [Example 1, (2R)-4-(5-fluoro-4-(2-fluoro-4-methoxyphenyl)-2-oxopyridin-1(2H)-yl)-2-methyl-2-(methylsulfonyl)butanamido phosphate]",,,,,
